Laboratory results as given in ChEMBL document CHEMBL3046710, “Synthesis and bioactivity evaluation of novel spiromesifen derivatives” (2012).
Values after ≈ are worked out from the molar mass of the structure shown. Active and inactive are the calls of the source. No cut-off for these calls is given here.

What was measured:
Mythimna separata [1] = test: Insecticidal activity against third-instar larvae of Mythimna separata (Oriental armyworm) assessed as mortality after 72 hr by spray method; format: functional
Tetranychus cinnabarinus [2] = test: Acaricidal activity against adult Tetranychus cinnabarinus (carmine spider mite) assessed as mortality after 72 hr by immersion method; format: functional
Aphis fabae [3] = test: Insecticidal activity against third-instar nymph of Aphis fabae (black bean aphids) assessed as mortality after 72 hr by spray method; format: functional; conditions: for LC50: Aphis fabae, 72 h
Mythimna separata [4] = test: Insecticidal activity against third-instar larvae of Mythimna separata (Oriental armyworm) assessed as mortality at 25 mg/L after 72 hr by spray method; format: functional, organism-based
Mythimna separata [5] = test: Insecticidal activity against third-instar larvae of Mythimna separata (Oriental armyworm) assessed as mortality at 100 mg/L after 72 hr by spray method; format: functional, organism-based
Mythimna separata [6] = test: Insecticidal activity against third-instar larvae of Mythimna separata (Oriental armyworm) assessed as mortality at 1000 mg/L after 72 hr by spray method; format: functional
Aphis fabae [7] = test: Insecticidal activity against third-instar nymph of Aphis fabae (black bean aphids) assessed as mortality at 4 mg/L after 72 hr by spray method; format: functional
Tetranychus cinnabarinus [8] = test: Acaricidal activity against adult Tetranychus cinnabarinus (carmine spider mite) assessed as mortality at 6.25 mg/L after 72 hr by immersion method; format: functional
Tetranychus cinnabarinus [9] = test: Ovolarvicidal activity against […] Tetranychus cinnabarinus (carmine spider mite) assessed as reduction in hatched eggs measured 6 days after hatching by immersion method; format: functional; conditions: for LC50: Tetranychus cinnabarinus, 144 h
Tetranychus cinnabarinus [10] = test: Acaricidal activity against adult Tetranychus cinnabarinus (carmine spider mite) assessed as mortality at 600 mg/L after 72 hr by immersion method; format: functional

Row | Compound | LC50 (Mythimna separata [1]) [µg/mL] | LC50 (Tetranychus cinnabarinus [2]) [µg/mL] | LC50 (Aphis fabae [3]) [µg/mL] | further results
1 | C/C=C/C(=O)C1=C(c2c(C)cc(C)cc2C)C(=O)OC12CCCC2 | 101 (≈ 311 µM) | 6.26 (≈ 19.3 µM) | 21 (≈ 64.7 µM) | –
2 | Cc1cc(C)c(C2=C(C(=O)/C=C/c3ccccc3)C3(CCCC3)OC2=O)c(C)c1 | 26 (≈ 67.3 µM) | 101 (≈ 261 µM) | 5 (≈ 12.9 µM) | Activity (Mythimna separata [4]): inactive; Activity (Mythimna separata [5]): Active
3 | Cc1cc(C)c(C2=C(C(=O)C3C(C=C(Cl)Cl)C3(C)C)C3(CCCC3)OC2=O)c(C)c1 (centres undefined) | 401 (≈ 896 µM) | > 600 | 100 (≈ 224 µM) | –
4 | Cc1cc(C)c(C2=C(C(=O)c3ccc(F)cc3)C3(CCCC3)OC2=O)c(C)c1 | 101 (≈ 267 µM) | 101 (≈ 267 µM) | 21 (≈ 55.5 µM) | –
5 | CCCCCCC(=O)C1=C(c2c(C)cc(C)cc2C)C(=O)OC12CCCC2 | 101 (≈ 274 µM) | 26 (≈ 70.6 µM) | 5 (≈ 13.6 µM) | –
6 | COC1=C(c2c(C)cc(C)cc2C)C(=O)OC12CCCC2 | > 1000 | > 600 | > 500 | –
7 | CCCCC(=O)C1=C(c2c(C)cc(C)cc2C)C(=O)OC12CCCC2 | 26 (≈ 76.4 µM) | 6.26 (≈ 18.4 µM) | 1 (≈ 2.94 µM) | mortality at 1000 µg/mL (Mythimna separata [6]): 100%; mortality at 4 µg/mL (Aphis fabae [7]): 55.5%
8 | Cc1cc(C)c(C2=C(C(=O)c3ccccc3C)C3(CCCC3)OC2=O)c(C)c1 | 26 (≈ 69.4 µM) | 101 (≈ 270 µM) | 5 (≈ 13.4 µM) | –
9 | COc1ccc(C(=O)C2=C(c3c(C)cc(C)cc3C)C(=O)OC23CCCC3)cc1 | 26 (≈ 66.6 µM) | 1 (≈ 2.56 µM) | 21 (≈ 53.8 µM) | mortality at 6.25 µg/mL (Tetranychus cinnabarinus [8]): 55.2%
10 | CCCCCC(=O)C1=C(c2c(C)cc(C)cc2C)C(=O)OC12CCCC2 | 26 (≈ 73.3 µM) | 6.26 (≈ 17.7 µM) | 1 (≈ 2.82 µM) | LC90 (Tetranychus cinnabarinus [9]): 56.08 µg/mL (≈ 158 µM); LC50 (Tetranychus cinnabarinus [9]): 11.8 µg/mL (≈ 33.3 µM); Activity (Mythimna separata [4]): inactive; mortality at 1000 µg/mL (Mythimna separata [6]): 100%; mortality at 4 µg/mL (Aphis fabae [7]): 95.6%; Activity (Mythimna separata [5]): Active; LC90 (Aphis fabae [3]): 21.77 µg/mL (≈ 61.4 µM)
11 | CCC(C)(C)C(=O)C1=C(c2c(C)cc(C)cc2C)C(=O)OC12CCCC2 | 101 (≈ 285 µM) | 6.26 (≈ 17.7 µM) | 21 (≈ 59.2 µM) | –
12 | C=CC(=O)C1=C(c2c(C)cc(C)cc2C)C(=O)OC12CCCC2 | 26 (≈ 83.8 µM) | 101 (≈ 325 µM) | 5 (≈ 16.1 µM) | –
13 | Cc1cc(C)c(C2=C(C(=O)CC(C)(C)C)C3(CCCC3)OC2=O)c(C)c1 | 101 (≈ 285 µM) | 26 (≈ 73.3 µM) | 5 (≈ 14.1 µM) | –
14 | Cc1cc(C)c(C2=C(C(=O)c3ccccc3Cl)C3(CCCC3)OC2=O)c(C)c1 | 26 (≈ 65.8 µM) | > 600 | 5 (≈ 12.7 µM) | Activity (Mythimna separata [4]): inactive; Activity (Mythimna separata [5]): Active
15 | CO/N=C(/C(=O)C1=C(c2c(C)cc(C)cc2C)C(=O)OC12CCCC2)c1ccccc1 | 26 (≈ 62.3 µM) | 26 (≈ 62.3 µM) | 21 (≈ 50.3 µM) | –
16 | CCCC(=O)C1=C(c2c(C)cc(C)cc2C)C(=O)OC12CCCC2 | 26 (≈ 79.6 µM) | 6.26 (≈ 19.2 µM) | 5 (≈ 15.3 µM) | mortality at 600 µg/mL (Tetranychus cinnabarinus [10]): 96.6%; mortality at 1000 µg/mL (Mythimna separata [6]): 100%
17 | CCOC1=C(c2c(C)cc(C)cc2C)C(=O)OC12CCCC2 | > 1000 | > 600 | > 500 | –
18 | Cc1cc(C)c(C2=C(C(=O)C(c3ccc(Cl)cc3)C(C)C)C3(CCCC3)OC2=O)c(C)c1 (centres undefined) | 401 (≈ 889 µM) | 101 (≈ 224 µM) | 101 (≈ 224 µM) | –
19 | Cc1ccc(C(=O)C2=C(c3c(C)cc(C)cc3C)C(=O)OC23CCCC3)cc1 | > 1000 | > 600 | > 500 | –
20 | CCC(=O)C1=C(c2c(C)cc(C)cc2C)C(=O)OC12CCCC2 | 101 (≈ 323 µM) | 6.26 (≈ 20 µM) | 21 (≈ 67.2 µM) | –
21 | Cc1cc(C)c(C2=C(OC(=O)CC(C)(C)C)C3(CCCC3)OC2=O)c(C)c1 [SPIROMESIFEN] | 101 (≈ 273 µM) | 6.26 (≈ 16.9 µM) | 5 (≈ 13.5 µM) | LC90 (Tetranychus cinnabarinus [9]): 31.07 µg/mL (≈ 83.9 µM); LC50 (Tetranychus cinnabarinus [9]): 4.32 µg/mL (≈ 11.7 µM); mortality at 4 µg/mL (Aphis fabae [7]): 10.9%
22 | CCOC(=O)OC1=C(c2cc(C)ccc2C)C(=O)N[C@]12CC[C@@H](OC)CC2 [SPIROTETRAMAT] | – | – | 5.06 (≈ 13.5 µM) | mortality at 4 µg/mL (Aphis fabae [7]): 37.9%; LC90 (Aphis fabae [3]): 13.56 µg/mL (≈ 36.3 µM)
23 | CCc1c(C)cc(OC2=C(c3c(C)cc(C)cc3C)C(=O)OC23CCCC3)cc1C | > 1000 | > 600 | > 500 | –
24 | CCC(C)(C)C(=O)OC1=C(c2ccc(Cl)cc2Cl)C(=O)OC12CCCCC2 [SPIRODICLOFEN] | – | – | – | mortality at 4 µg/mL (Aphis fabae [7]): 0%
